Measured values: ChEMBL document CHEMBL3769307, “Selective inhibitors of phosphodiesterases: therapeutic promise for neurodegenerative disorders” (Medchemcomm, 2015)

Test system: not listed separately
Assay: Inhibition of cGMP stimulated pig PDE2A
Parameters: species or system Sus scrofa

IC50 | Compound
2000 nM | CCCCCC[C@H]([C@H](C)O)n1cnc2c(N)ncnc21 (relative stereo) [(+)-EHNA]

Test system: not listed separately
Assay: Inhibition of cGMP activated PDE2 (unknown origin)
Parameters: species or system Homo sapiens

IC50 | Compound
0.6 nM | COc1ccc(Cc2nc3c(ncn3C(CCCc3ccccc3)C(C)=O)c(=O)[nH]2)cc1OC (centres undefined)
700 nM | CCCCCC[C@H]([C@H](C)O)n1cnc2c(N)ncnc21 (relative stereo) [(+)-EHNA]

Target: Phosphodiesterase 4 (Homo sapiens, UniProt P27815+Q08499+Q07343+Q08493)
Assay: Inhibition of PDE4 (unknown origin)
Format: protein assay

IC50 | Compound
0.88 nM | CC(C)(Cc1ccc(-c2cccc(-n3cc(C(=O)NC4CC4)c(=O)c4cccnc43)c2)cc1)C(=O)O
0.85 nM | CC(C)(CC(=O)O)c1ccc(-c2cccc(-n3cc(C(=O)NC4CC4)c(=O)c4cccnc43)c2)cc1
0.54 nM | O=C(NC1CC1)c1cn(-c2cccc(-c3cccc([C@@H]4C[C@H]4C(=O)O)c3)c2)c2ncccc2c1=O
0.57 nM | O=C(NC1CC1)c1cn(-c2cccc(-c3ccc([C@@H]4C[C@H]4C(=O)O)cc3)c2)c2ncccc2c1=O (relative stereo)
0.51 nM | O=C(NCC(F)(F)F)c1cn(-c2cccc(-c3ccc([C@@H]4C[C@H]4C(=O)O)cc3)c2)c2ncccc2c1=O (relative stereo)
0.58 nM | CC1(NC(=O)c2cn(-c3cccc(-c4ccc([C@@H]5C[C@H]5C(=O)O)cc4)c3)c3ncccc3c2=O)CC1 (relative stereo)
0.32 nM | CC(C)(c1cc(-c2cccc(-c3ccc([C@@H]4C[C@H]4C(=O)O)cc3)c2)c2ncccc2c1)S(C)(=O)=O (relative stereo)
0.53 nM | O=C(NC1CC1)c1cn(-c2cccc(-c3ccc([C@@H]4C[C@@H]4C(=O)O)c(F)c3)c2)c2ncccc2c1=O (relative stereo)
32 nM | CC(C)(C)NC(=O)c1cn(-c2cccc(-c3ccc([C@@H]4C[C@H]4C(=O)O)cc3)c2)c2ncccc2c1=O (relative stereo)
0.52 nM | O=C(NC1CCC1)c1cn(-c2cccc(-c3ccc([C@@H]4C[C@H]4C(=O)O)cc3)c2)c2ncccc2c1=O (relative stereo)
4.6 nM | O=C(NC1CC1)c1cn(-c2cccc(-c3ccccc3[C@@H]3C[C@H]3C(=O)O)c2)c2ncccc2c1=O (relative stereo)
0.35 nM | O=C(NCC1CC1)c1cn(-c2cccc(-c3ccc([C@@H]4C[C@H]4C(=O)O)cc3)c2)c2ncccc2c1=O (relative stereo)
1.6 nM | O=C(NC1CC1)c1cn(-c2cccc(-c3ccc([C@@H]4C[C@@H]4C(=O)O)cc3)c2)c2ncccc2c1=O (relative stereo)
0.55 nM | O=C(NC1CC1)c1cn(-c2cccc(-c3ccc([C@@H]4C[C@H]4c4nnn[nH]4)cc3)c2)c2ncccc2c1=O (relative stereo)
17 nM | O=C(NC1(O)CC1)c1cn(-c2cccc(-c3ccc([C@@H]4C[C@H]4C(=O)O)cc3)c2)c2ncccc2c1=O (relative stereo)
1700 nM | CCCCCC[C@H]([C@H](C)O)n1cnc2c(N)ncnc21 (relative stereo) [(+)-EHNA]
5.1 nM | O=C(NC1CC1)c1cn(-c2cccc(C#Cc3ccc[n+]([O-])c3)c2)c2ncccc2c1=O [MK-0873]

Test system: not listed separately
Assay: Inhibition of bovine PDE2
Parameters: species or system Bos taurus

IC50 | Compound
2 nM | COc1ccc(Cc2nc(O)c3c(C)nc([C@@H](CCCc4ccccc4)[C@@H](C)O)n3n2)cc1OC

Target: 3',5'-cyclic-AMP phosphodiesterase 4D (Homo sapiens, UniProt Q08499)
Sequence (Q08499 whole entry): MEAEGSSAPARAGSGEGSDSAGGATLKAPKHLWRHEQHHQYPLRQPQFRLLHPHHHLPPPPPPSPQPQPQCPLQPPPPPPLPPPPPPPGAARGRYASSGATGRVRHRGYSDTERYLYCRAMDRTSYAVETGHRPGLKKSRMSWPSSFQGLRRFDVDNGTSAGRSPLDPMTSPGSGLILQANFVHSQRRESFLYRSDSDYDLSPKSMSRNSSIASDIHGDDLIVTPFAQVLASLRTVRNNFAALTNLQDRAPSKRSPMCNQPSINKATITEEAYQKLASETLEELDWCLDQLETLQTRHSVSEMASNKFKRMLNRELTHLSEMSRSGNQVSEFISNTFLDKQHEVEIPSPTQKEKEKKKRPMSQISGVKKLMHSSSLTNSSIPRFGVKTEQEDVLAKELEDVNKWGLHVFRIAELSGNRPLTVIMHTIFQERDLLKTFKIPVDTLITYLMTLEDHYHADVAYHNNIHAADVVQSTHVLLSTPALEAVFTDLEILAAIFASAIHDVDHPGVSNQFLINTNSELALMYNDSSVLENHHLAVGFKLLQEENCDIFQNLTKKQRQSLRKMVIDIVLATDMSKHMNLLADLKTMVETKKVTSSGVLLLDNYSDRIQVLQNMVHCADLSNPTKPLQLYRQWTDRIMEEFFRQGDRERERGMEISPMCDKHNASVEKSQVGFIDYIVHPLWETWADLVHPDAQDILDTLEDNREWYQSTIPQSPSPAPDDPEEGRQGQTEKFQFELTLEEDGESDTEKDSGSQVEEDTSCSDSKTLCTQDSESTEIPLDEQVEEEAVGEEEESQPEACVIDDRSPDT
Assay: Inhibition of PDE4D3 (unknown origin)

IC50 | Compound
150 nM | COc1ccc([C@@H]2CNC(=O)[C@@H](Cc3cccc(C)c3)C2)cc1OC1CCCC1

Target: High affinity 3',5'-cyclic-AMP phosphodiesterase 7A (Homo sapiens, UniProt Q13946)
Sequence (Q13946 whole entry): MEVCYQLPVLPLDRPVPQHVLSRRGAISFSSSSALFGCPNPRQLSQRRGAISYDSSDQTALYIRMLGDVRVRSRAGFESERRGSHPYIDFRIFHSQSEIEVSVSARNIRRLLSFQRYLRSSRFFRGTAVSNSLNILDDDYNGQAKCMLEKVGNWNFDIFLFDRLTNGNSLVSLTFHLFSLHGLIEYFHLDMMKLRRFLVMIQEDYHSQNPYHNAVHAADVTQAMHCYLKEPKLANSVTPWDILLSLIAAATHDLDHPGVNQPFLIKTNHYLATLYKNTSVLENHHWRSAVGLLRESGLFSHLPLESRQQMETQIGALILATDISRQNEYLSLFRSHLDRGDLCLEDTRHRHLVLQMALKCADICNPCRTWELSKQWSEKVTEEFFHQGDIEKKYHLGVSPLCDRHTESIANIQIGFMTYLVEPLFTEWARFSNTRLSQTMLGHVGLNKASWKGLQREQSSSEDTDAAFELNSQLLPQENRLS
Assay: Inhibition of PDE7A (unknown origin)

Compound | IC50
O=c1c2ccccc2[nH]c(=S)n1-c1ccccc1 | 5500 nM

Target: cGMP-specific 3',5'-cyclic phosphodiesterase (Homo sapiens, UniProt O76074)
Assay: Inhibition of PDE5 (unknown origin)

IC50 | Compound
0.27 nM | COc1ccc(CNc2c(CO)cnc3c(N(C)C)cc(C#N)cc23)cc1Cl
0.27 nM | COc1ccc(CNc2c(CO)cnc3c(NCCN(C)C)cc(C#N)cc23)cc1Cl
0.27 nM | CCNc1cc(C#N)cc2c(NCc3ccc(OC)c(Cl)c3)c(CO)cnc12
0.27 nM | COc1ccc(CNc2c(CO)cnc3c(NC4CC4)cc(C#N)cc23)cc1Cl
0.27 nM | COc1ccc(CNc2c(CO)cnc3c(N4CCOCC4)cc(C#N)cc23)cc1Cl

Test system: not listed separately
Assay: Inhibition of PDE9 (unknown origin)
Parameters: species or system Homo sapiens

IC50 | Compound
55 nM | C[C@H](Cc1nn2c(-c3ccccc3Cl)ncc2c(=O)[nH]1)C(F)(F)F
